Test results reported in US7964734B2, “Raloxifene acid addition salts and/or solvates thereof, improved method for purification of said raloxifene acid addition salts and/or solvates thereof and pharmaceutical compositions comprising these” (A/S Gea Farmaceutisk Fabrik, priority 2002, dated 2011).
Counter-ions that a name gives are not always drawn. Like-named read-outs stand apart in the source and are kept apart here.

Columns and labels:
[1] = cited from earlier work
[2] = Intrinsic dissolution rate, Rotation Disc Method (USP 1087); format: physicochemical; settings: 37° C., 100 rpm, average of two measurements
Method: The raloxifene hydrochloride salt used in these experiments was purchased from Otto Bradt GmbH (batch MA/RF/12003) while the rest of the raloxifene acid additions salts were prepared according to Example 1-6.
The experiments were carried out following the procedure of Rotation Disc Method (USP 1087) using Vankel VK 7000 Intrinsic dissolution apparatus (Vankel Technology group, W. Vankelion) equipped with Vankel 12-4120 intrinsic disc having a surface area of 0.5 cm^2, Vankel 12-4130 surface plate, Vankel 12-4140 punch, and Vankel shaft and holder (surface area: 0.5 cm^2) and operating at a rotation rate of 100 rpm.
The buffer solution is handled in a 750 ml measuring bottle, degassed and transferred into a dissolution vessel. Approximately 100 mg compound is weighed out and transferred into an intrinsic disc. Said disc is then assembled, and to said disc a disc is applied in the IR-press at a pressure of 5 kN for 1 minute. The disc is started and samples of 10 ml are collected by use of “pressure vials” after 1, 10, 20, 30, 45, and 60 minutes. The change of volume is corrected using the equation: Q=Vs×(sumCn−1)+Cn×Vt wherein Q designates the volume at the time t, C designates the concentration of the sample n, Vt designates the volume of the liquid collected at the time t, and Vs designates the volume of the sample collected. The sample is measured against a standard using HPLC. In these measurements a 5 microns 3.9×150 mm column filled with symmetrical material is employed and as eluant a 20 mM phosphate buffer KH2PO4, pH 6.8 mixed with acetonitrile and tetrahydrofuran in the ratio 55:35:10 is used.
The standard is prepared by use of following procedure: 20 mg of salt is dissolved initially in 100 ml of MeOH and then 1 ml of this solution is transferred to a 50 ml flask with water and then 2 ml to a 20 ml flask of buffer in question.
pH 1: a 0.1 M HCl is used.
0.025 M Phosphate buffer solution pH 2.0: 3.40 g of potassium dihydrogen phosphate is dissolved in 900 ml of water. Then pH is adjusted to 2.0 with phosphoric acid and diluted to 1000.0 ml with water. Exactly 5.85 g of NaCl is added to 1 L of buffer.
0.025 M Phosphate buffer solution pH 3.0: 3.40 g of potassium dihydrogen phosphate is dissolved in 900 ml of water. Then pH is adjusted to 3.0 with phosphoric acid and diluted to 1000.0 ml with water. Exactly 5.85 g of NaCl is added to 1 L of buffer.
0.022 M Phosphate buffer solution pH 4.0: 3.0 g of potassium dihydrogen phosphate is dissolved in 800 ml of water. Then pH is adjusted with 1 M potassium hydroxide and phosphoric acid and diluted to 1000.0 ml with water. Exactly 5.85 g of NaCl is added to 1 L of buffer. 0.02 M Phosphate buffer solution pH 5.0: 2.72 g of potassium dihydrogen phosphate is dissolved in 800 ml of water. Then pH is adjusted with 1 M potassium hydroxide and diluted to 1000.0 ml with water. Exactly 5.85 g of NaCl is added to 1 L of buffer.

[3] = Solubility in aqueous solvents/media (general statement); format: physicochemical; settings: versus aqueous media
[4] = Dissolution test in dilute acid, evaluated visually; format: physicochemical
Method: 60 mg raloxifene HCl was transferred to a dissolution vessel containing one liter 0.1 M HCl. The mixture was vigorously mixed and left at room temperature over night. Subsequently the dissolution was evaluated visually.
A similar dissolution test was performed using 60 mg raloxifene hydrochloride in 0.1 M phosphoric acid.

[5] = Hydrochloride, pH 1 (0.1 M HCl)
[6] = Phosphate, pH 2, chloride 0.1 M
[7] = Phosphate, pH 3, chloride 0.1 M
[8] = Phosphate, pH 4, chloride 0.1 M
[9] = Phosphate, pH 5, chloride 0.1 M

| Compound | solubility in aqueous solvents [1] | intrinsic dissolution rate (IDR) [2, 5] [μmol/min * cm^2] | intrinsic dissolution rate (IDR) [2, 6] [μmol/min * cm^2] | intrinsic dissolution rate (IDR) [2, 7] [μmol/min * cm^2] | intrinsic dissolution rate (IDR) [2, 8] [μmol/min * cm^2] | intrinsic dissolution rate (IDR) [2, 9] [μmol/min * cm^2] | solubility in aqueous media comprising hydrochloric acid [3] | dissolution evaluated visually ([4]; 60 mg in 0.1 M phosphoric acid, similar test) | dissolution evaluated visually ([4]; 60 mg in one liter 0.1 M HCl, vigorously mixed, room temperature over night) | solubility in aqueous solvents ([1]; hydrochloride) |
| --- | --- | --- | --- | --- | --- | --- | --- | --- | --- | --- |
| O=C(c1ccc(OCCN2CCCCC2)cc1)c1c(-c2ccc(O)cc2)sc2cc(O)ccc12 [raloxifene as free base, 6-hydroxy-2-(4-hydrophenyl)-3-[4-(2-piperidinoethoxy)-benzoyl]benzo-[b]-thiophene] | only sparingly soluble | – | – | – | – | – | – | – | – | – |
| [6-hydroxy-2-(4-hydroxyphenyl)benzo[b]thien-3-yl][4-[2-(1-piperidinyl)ethoxy]phenyl-, succinate | – | 0.0550 | 0.0228 | 0.0271 | 0.0127 | 0.0119 | – | – | – | – |
| O=C(c1ccc(OCCN2CCCCC2)cc1)c1c(-c2ccc(O)cc2)sc2cc(O)ccc12 [Hydrochloride, raloxifene hydrochloride, reference compound] | – | 0.0022 | 0.0026 | 0.0022 | 0.0022 | 0.0044 | decreases significant | all raloxifene hydrochloride seemed to be dissolved | Very little of the initial added amount of raloxifene hydrochloride was dissolved | fairly soluble |
| O=C(O)CC(=O)O.O=C(c1ccc(OCCN2CCCCC2)cc1)c1c(-c2ccc(O)cc2)sc2cc(O)ccc12 [Malonate] | – | 0.0229 | 0.0173 | 0.0148 | 0.0136 | 0.0112 | – | – | – | – |
| C[C@H](O)C(=O)O.O=C(c1ccc(OCCN2CCCCC2)cc1)c1c(-c2ccc(O)cc2)sc2cc(O)ccc12 [L-lactate hemihydrate] | – | 0.0475 | 0.0453 | 0.0403 | 0.0190 | 0.0091 | – | – | – | – |
| CC(O)C(=O)O.O=C(c1ccc(OCCN2CCCCC2)cc1)c1c(-c2ccc(O)cc2)sc2cc(O)ccc12 [DL-lactate hemihydrate, [6-hydroxy-2-(4-hydroxyphenyl)benzo[b]thien-3-yl][4-[2-(1-piperidinyl)ethoxy]phenyl-, DL-lactate] | – | 0.0056 | 0.0119 | 0.0062 | 0.0212 | 0.0215 | – | – | – | – |
| C[C@H](O)C(=O)O.O=C(c1ccc(OCCN2CCCCC2)cc1)c1c(-c2ccc(O)cc2)sc2cc(O)ccc12 [L-Lactate ¼-hydrate] | – | 0.0035 | 0.0028 | 0.0067 | 0.0324 | 0.0247 | – | – | – | – |
